US20110065754A1 (priority 2009, published 2011)
pIC50: −log10 of the molar value.

Key:
Ebola Zaire Virus = format: cell-based, Ebola virus (strain Zaire)
Marburg Ci67 = format: cell-based, Marburg virus
[1] = tested on: Ebola virus (strain Zaire); parameters: species or system Balb/c mice; conditions: mouse, in vivo
Ebola Zaire = tested on: Ebola Zaire; parameters: species or system C57Bl/6 mice; conditions: mouse, in vivo
Marburg Ravn = tested on: Marburg Ravn; parameters: species or system Balb/c mice; conditions: mouse, in vivo
[2] = mouse, in vivo
[3] = mouse

| Compound | pIC50 (Ebola Zaire Virus) | pIC50 (Marburg Ci67) | survival rate [1] | protection against Ebola virus (survival) (Ebola Zaire) | protection against Marburg virus (survival) (Marburg Ravn) | reversibility of symptoms after end of treatment [2] | weight loss [2] | weight loss compared to vehicle only control [2] | weight loss or adverse effects in vivo [3] |
| --- | --- | --- | --- | --- | --- | --- | --- | --- | --- |
| [N-]=[N+]=Nc1ccc(NCCCCCCN2C[C@H](O)[C@@H](O)[C@H](O)[C@H]2CO)c([N+](=O)[O-])c1 [NAP-DNJ, N—(N-{4′-azido-2′-nitrophenyl}-6-aminohexyl)deoxynojirimycin] | 5.22 | 5.22 | 71% | significant protection | protection | symptoms promptly ceased when treatment was done | did not show signs of weight loss | did not show any significant signs of weight loss | no weight loss or adverse effects observed |
| CCCOCCCCCCN1C[C@H](O)[C@@H](O)[C@H](O)[C@H]1CO [Compound N7-O-DNJ, N-(7-Oxadecyl)deoxynojirimycin] | 4.70 | 4.30 | – | – | – | – | – | – | – |
| CCCCCCCCCN1C[C@H](O)[C@@H](O)[C@H](O)[C@H]1CO [NN-DNJ, N-Nonyl deoxynojirimycin] | 4.92 | – | – | – | – | – | – | – | – |
| CCCCN1C[C@H](O)[C@@H](O)[C@H](O)[C@H]1CO [NB-DNJ, N-Butyl deoxynojirimycin] | 4.49 | – | – | – | – | – | – | did not show any significant signs of weight loss | – |
| COCCCCCCCCCN1C[C@H](O)[C@@H](O)[C@H](O)[C@H]1CO [Compound N9-DNJ, N-(9-Methoxynonyl) deoxynojirimycin] | 4.80 | 4.49 | – | – | – | – | – | did not show any significant signs of weight loss | – |
